Here are results for two compounds from ChEMBL document CHEMBL4819104, “Discovery of 2-amino-3-amido-5-aryl-pyridines as highly potent, orally bioavailable, and efficacious PERK kinase inhibitors” (Bioorg Med Chem Lett, 2021).

Data set [1] is described as follows: Half life in rat hepatocytes. Type of data set: ADME, cell-based, Hepatocyte.
Data set [2] is described as follows: Oral bioavailability in mouse at 10 mg/kg. Particulars: in vivo. Type of data set: ADME, organism-based.
A short description of data set [3]: Plasma protein binding in human. Type of data set: ADME, cell-free. Particulars: read-out: PPB (converted).
Data set [4] in a line: Plasma protein binding in rat. Particulars: read-out: PPB (converted). Type of data set: ADME, cell-free.
The nature of data set [5]: Half life in human hepatocytes. Type of data set: ADME, cell-based, Hepatocyte.
The nature of data set [6]: Half life in mouse hepatocytes. Type of data set: ADME, cell-based, Hepatocyte.
The nature of data set [7]: Efflux ratio of apparent permeability in human Caco-2 cells. Type of data set: ADME, cell-based.
The nature of data set [8]: Cmax in mouse at 10 mg/kg, po. Type of data set: ADME, organism-based. Set-up: route oral, dose 10 mg/kg. Particulars: in vivo.
The nature of data set [9]: Plasma protein binding in mouse. Type of data set: ADME, cell-free. Particulars: read-out: PPB (converted).
Data set [10] in a line: Apparent permeability of the compound across apical to basolateral side in human Caco-2 cells. Type of data set: ADME, cell-based. Particulars: read-out: permeability.
Data set [11] is described as follows: Half life in dog hepatocytes. Type of data set: ADME, cell-based, Canis lupus familiaris, Hepatocyte.
Data set [12] concerns the target T1, Eukaryotic translation initiation factor 2-alpha kinase 3 (Homo sapiens, UniProt Q9NZJ5).
T1 sequence (Q9NZJ5 whole entry): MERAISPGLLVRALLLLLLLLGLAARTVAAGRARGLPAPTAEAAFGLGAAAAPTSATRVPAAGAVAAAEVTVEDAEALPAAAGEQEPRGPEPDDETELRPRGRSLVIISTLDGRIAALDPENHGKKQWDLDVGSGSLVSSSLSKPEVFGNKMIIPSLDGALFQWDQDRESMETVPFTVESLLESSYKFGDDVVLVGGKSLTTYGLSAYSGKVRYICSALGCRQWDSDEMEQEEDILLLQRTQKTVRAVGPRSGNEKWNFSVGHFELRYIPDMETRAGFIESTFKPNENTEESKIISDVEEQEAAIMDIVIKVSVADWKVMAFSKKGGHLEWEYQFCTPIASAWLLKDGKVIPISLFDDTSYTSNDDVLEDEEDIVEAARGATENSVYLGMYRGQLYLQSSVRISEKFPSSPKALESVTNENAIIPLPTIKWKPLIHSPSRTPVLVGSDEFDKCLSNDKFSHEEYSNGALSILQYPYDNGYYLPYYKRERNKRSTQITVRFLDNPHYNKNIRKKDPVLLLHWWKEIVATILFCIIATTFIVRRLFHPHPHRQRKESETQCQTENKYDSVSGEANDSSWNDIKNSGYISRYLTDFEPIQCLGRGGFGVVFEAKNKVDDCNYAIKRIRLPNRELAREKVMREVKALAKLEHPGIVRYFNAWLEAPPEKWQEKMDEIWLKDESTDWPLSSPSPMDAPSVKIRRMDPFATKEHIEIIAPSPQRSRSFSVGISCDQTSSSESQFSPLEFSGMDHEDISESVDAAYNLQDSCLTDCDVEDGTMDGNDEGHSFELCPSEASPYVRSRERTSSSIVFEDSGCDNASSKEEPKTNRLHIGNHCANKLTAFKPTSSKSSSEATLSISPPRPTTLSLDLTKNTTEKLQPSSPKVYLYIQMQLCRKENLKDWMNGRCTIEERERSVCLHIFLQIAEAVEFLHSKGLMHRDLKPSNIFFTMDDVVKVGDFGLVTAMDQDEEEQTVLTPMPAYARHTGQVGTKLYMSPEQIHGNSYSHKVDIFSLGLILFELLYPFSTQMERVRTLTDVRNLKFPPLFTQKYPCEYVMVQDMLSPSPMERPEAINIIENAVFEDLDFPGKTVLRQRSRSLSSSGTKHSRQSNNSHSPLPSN
In words: Inhibition of human His-tagged PERK expressed in Escherichia coli assessed as eIF2alpha phosphorylation by TR-FRET assay.

Data set [13] in a line: Aqueous solubility of the compound. Type of data set: physicochemical. Particulars: buffer.
Data set [14] in a line: Plasma protein binding in dog. Type of data set: ADME, cell-free, Canis lupus familiaris. Particulars: read-out: PPB (converted).
Data set [15] can be described thus: AUC (0 to last) in mouse at 10 mg/kg, po. Type of data set: ADME, organism-based. Set-up: time 0 - last, route oral, dose 10 mg/kg. Particulars: in vivo.
A short description of data set [16]: Half life in mouse at 10 mg/kg, po. Type of data set: ADME, organism-based. Particulars: in vivo.
For data set [17], the target named is BDNF/NT-3 growth factors receptor (Homo sapiens) (UniProt Q16620). Description: Inhibition of wild-type human partial length TRKB (Q547 to G838 residues) expressed in mammalian expression system assessed as residual activity at 10 uM by Kinomescan method relative to control.
Data set [18] concerns the target Angiopoietin-1 receptor (Homo sapiens) (UniProt Q02763). In words: Inhibition of wild-type human partial length TIE2 (N804 to T1112 residues) expressed in bacterial expression system assessed as residual activity at 10 uM by Kinomescan method relative to control.
For data set [19], the target named is T2, Receptor-interacting serine/threonine-protein kinase 1 (Homo sapiens) (UniProt Q13546).
T2 sequence (whole entry): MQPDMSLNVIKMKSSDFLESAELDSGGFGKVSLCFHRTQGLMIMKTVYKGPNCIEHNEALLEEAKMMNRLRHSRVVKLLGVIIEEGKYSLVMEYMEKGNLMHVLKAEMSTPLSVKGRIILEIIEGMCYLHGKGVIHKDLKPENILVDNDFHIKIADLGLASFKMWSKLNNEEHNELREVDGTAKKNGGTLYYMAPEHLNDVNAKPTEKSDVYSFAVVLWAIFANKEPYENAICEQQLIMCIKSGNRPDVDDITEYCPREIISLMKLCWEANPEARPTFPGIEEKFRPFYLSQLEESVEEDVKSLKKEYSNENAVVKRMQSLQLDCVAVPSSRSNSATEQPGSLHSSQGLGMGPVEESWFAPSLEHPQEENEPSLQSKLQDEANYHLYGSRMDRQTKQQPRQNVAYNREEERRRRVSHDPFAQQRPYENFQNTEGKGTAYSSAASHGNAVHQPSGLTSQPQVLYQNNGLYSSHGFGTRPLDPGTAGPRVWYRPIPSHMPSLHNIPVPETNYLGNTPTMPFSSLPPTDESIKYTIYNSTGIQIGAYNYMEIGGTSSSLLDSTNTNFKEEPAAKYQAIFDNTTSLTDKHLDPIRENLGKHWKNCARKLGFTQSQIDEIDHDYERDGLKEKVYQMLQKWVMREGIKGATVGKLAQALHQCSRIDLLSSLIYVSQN
Description: Inhibition of wild-type human partial length RIPK1 (M1 to K305 residues) expressed in bacterial expression system assessed as residual activity at 10 uM by Kinomescan method relative to control.

In data set [20] the target is Macrophage colony-stimulating factor 1 receptor (Homo sapiens) (UniProt P07333). In words: Inhibition of wild-type human partial length CSF1R (I564 to S939 residues) expressed in bacterial expression system assessed as residual activity at 10 uM by Kinomescan method relative to control.
In data set [21] the target is Proto-oncogene tyrosine-protein kinase Src (Homo sapiens) (UniProt P12931). Description: Inhibition of wild-type human partial length SRC (L240 to L536 residues) expressed in bacterial expression system assessed as residual activity at 10 uM by Kinomescan method relative to control.
Sequence of Proto-oncogene tyrosine-protein kinase Src (Homo sapiens) (P12931 2-536 limits assumed): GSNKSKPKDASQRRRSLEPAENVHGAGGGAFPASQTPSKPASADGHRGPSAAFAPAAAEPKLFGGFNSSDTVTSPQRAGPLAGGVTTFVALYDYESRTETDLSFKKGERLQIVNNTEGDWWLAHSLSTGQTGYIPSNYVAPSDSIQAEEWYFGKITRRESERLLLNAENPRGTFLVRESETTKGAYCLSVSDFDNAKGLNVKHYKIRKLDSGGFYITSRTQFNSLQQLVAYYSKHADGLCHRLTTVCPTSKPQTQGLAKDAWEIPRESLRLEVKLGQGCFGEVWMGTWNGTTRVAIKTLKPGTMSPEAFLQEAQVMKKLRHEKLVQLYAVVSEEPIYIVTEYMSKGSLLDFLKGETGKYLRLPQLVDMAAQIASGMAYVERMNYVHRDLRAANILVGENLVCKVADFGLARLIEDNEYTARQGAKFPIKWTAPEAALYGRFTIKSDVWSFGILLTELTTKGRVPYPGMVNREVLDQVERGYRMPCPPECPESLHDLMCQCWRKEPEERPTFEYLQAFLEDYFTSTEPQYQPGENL
Data set [22] has as its target Aurora kinase B (Homo sapiens) (UniProt Q96GD4). In words: Inhibition of wild-type human partial length AURKB (D25 to A303 residues) expressed in mammalian expression system assessed as residual activity at 10 uM by Kinomescan method relative to control.
In data set [23] the target is Tyrosine-protein kinase receptor UFO (Homo sapiens) (UniProt P30530). In words: Inhibition of wild-type human partial length AXL (R497 to Y821 residues) expressed in bacterial expression system assessed as residual activity at 10 uM by Kinomescan method relative to control.
Sequence of Tyrosine-protein kinase receptor UFO (Homo sapiens) (P30530 whole entry, the tested form may be a part): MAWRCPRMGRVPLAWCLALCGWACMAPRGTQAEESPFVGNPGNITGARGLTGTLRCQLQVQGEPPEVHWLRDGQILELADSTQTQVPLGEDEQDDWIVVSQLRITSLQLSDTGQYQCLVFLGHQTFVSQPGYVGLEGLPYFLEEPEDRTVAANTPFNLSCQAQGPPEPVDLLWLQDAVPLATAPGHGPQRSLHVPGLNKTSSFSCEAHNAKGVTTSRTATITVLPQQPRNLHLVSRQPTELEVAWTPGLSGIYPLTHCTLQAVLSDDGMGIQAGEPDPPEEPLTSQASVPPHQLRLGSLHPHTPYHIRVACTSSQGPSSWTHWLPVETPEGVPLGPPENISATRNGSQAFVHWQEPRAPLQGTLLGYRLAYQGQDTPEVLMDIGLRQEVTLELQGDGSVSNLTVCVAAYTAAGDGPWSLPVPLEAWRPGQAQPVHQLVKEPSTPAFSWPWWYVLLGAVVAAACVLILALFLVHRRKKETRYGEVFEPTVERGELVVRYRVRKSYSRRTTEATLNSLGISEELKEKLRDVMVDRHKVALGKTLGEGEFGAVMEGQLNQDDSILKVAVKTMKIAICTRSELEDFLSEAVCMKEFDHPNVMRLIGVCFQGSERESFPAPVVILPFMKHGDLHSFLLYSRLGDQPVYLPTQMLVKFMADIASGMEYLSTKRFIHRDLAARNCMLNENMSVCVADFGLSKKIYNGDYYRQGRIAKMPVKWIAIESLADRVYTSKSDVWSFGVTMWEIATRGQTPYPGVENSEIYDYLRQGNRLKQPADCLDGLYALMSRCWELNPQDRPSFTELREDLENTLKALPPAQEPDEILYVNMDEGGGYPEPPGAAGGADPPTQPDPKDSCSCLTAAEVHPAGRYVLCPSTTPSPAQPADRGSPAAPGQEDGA
Data set [24] deals with Platelet-derived growth factor receptor beta (Homo sapiens) (UniProt P09619). In words: Inhibition of wild-type human partial length PDGFRbeta (V582 to Y1009 residues) expressed in bacterial expression system assessed as residual activity at 10 uM by Kinomescan method relative to control.
Sequence of Platelet-derived growth factor receptor beta (Homo sapiens) (P09619 whole entry, the tested form may be a part): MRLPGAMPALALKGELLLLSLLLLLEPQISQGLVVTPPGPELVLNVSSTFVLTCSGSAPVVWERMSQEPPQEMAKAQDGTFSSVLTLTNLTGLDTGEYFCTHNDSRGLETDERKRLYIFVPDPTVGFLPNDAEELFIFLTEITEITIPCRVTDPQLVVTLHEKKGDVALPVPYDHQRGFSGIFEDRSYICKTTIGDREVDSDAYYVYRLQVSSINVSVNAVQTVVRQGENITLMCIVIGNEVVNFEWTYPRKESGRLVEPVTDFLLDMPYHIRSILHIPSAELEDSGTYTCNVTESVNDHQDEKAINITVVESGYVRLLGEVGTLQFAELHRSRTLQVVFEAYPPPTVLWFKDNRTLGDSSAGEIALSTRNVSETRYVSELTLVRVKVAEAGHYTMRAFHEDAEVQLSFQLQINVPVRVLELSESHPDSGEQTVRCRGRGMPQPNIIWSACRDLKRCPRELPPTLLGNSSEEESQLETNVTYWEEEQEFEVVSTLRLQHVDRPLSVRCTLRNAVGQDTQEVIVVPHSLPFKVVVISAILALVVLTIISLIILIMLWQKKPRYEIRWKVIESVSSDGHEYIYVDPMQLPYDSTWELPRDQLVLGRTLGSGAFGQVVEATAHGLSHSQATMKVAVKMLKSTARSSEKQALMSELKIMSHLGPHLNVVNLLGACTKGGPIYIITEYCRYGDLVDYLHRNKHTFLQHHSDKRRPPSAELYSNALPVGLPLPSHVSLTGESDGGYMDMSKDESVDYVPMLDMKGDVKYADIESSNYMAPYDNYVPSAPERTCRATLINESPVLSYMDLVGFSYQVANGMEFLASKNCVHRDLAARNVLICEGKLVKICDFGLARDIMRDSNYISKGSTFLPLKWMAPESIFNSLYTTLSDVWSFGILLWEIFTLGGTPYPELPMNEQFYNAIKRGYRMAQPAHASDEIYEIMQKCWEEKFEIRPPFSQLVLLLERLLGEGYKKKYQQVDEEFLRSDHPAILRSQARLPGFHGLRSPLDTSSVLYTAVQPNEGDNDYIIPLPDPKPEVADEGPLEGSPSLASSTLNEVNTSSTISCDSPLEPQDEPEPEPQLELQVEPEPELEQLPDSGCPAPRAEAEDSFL
Data set [25] concerns the target T3, Mitogen-activated protein kinase 12 (Homo sapiens) (UniProt P53778).
T3 sequence (whole entry): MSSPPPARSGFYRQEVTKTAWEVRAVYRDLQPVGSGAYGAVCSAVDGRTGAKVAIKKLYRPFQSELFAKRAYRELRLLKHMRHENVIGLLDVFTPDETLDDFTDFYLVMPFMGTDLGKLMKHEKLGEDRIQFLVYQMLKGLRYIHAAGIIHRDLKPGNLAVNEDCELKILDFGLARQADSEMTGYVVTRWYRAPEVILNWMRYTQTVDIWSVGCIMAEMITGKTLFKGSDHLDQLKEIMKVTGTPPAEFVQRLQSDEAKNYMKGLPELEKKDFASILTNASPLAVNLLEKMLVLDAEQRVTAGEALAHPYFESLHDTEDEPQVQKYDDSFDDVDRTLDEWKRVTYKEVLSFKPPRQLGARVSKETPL
Description: Inhibition of wild-type human full length p38-gamma (M1 to L367 residues) expressed in mammalian expression system assessed as residual activity at 10 uM by Kinomescan method relative to control.

Data set [26] concerns the target Mast/stem cell growth factor receptor Kit (Homo sapiens) (UniProt P10721). In words: Inhibition of wild-type human partial length KIT (I571 to D952 residues) expressed in bacterial expression system assessed as residual activity at 10 uM by Kinomescan method relative to control.
In data set [27] the target is Epithelial discoidin domain-containing receptor 1 (Homo sapiens) (UniProt Q08345). Description: Inhibition of wild-type human partial length DDR1 (R565 to V876 residues) expressed in bacterial expression system assessed as residual activity at 10 uM by Kinomescan method relative to control.
Data set [28] has as its system Tyrosine-protein kinase ABL1 (Homo sapiens), P00519 [F317L]. In words: Inhibition of human non-phosphorylated ABL1 F317L mutant (S229 to K512 residues) expressed in mammalian expression system assessed as residual activity at 10 uM by Kinomescan method relative to control.

pIC50: −log10 of the molar value. ≈ marks a conversion by molar mass, not a printed value.

Sequence of Angiopoietin-1 receptor (Homo sapiens) (Q02763 whole entry, the tested form may be a part): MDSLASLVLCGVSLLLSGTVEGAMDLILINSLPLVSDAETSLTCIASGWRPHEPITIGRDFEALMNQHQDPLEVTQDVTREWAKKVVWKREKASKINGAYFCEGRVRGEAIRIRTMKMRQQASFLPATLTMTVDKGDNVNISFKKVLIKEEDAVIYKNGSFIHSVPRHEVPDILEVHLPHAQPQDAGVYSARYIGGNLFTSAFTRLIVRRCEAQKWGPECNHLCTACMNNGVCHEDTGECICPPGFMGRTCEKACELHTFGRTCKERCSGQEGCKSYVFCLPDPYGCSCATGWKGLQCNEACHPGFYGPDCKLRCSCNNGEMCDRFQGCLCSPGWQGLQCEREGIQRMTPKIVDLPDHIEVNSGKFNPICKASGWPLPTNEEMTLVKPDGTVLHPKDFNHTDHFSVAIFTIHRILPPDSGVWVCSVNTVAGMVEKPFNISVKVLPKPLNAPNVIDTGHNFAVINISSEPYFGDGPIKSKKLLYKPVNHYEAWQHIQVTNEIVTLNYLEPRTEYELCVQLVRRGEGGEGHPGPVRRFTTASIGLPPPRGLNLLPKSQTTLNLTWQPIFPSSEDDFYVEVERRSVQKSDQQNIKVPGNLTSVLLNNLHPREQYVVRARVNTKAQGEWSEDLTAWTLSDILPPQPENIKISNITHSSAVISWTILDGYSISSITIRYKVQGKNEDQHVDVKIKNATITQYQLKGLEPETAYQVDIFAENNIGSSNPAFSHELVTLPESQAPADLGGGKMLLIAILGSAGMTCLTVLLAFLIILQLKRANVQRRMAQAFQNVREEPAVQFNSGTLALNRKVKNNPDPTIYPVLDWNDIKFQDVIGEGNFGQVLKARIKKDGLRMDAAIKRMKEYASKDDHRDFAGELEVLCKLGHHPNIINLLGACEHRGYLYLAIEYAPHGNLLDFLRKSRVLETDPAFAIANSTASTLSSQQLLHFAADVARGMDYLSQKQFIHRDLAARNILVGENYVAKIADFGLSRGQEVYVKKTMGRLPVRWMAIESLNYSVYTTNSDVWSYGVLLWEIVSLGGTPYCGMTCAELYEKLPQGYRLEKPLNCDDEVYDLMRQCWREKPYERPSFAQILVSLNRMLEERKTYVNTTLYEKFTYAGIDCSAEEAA
Sequence of Mast/stem cell growth factor receptor Kit (Homo sapiens) (P10721 whole entry, the tested form may be a part): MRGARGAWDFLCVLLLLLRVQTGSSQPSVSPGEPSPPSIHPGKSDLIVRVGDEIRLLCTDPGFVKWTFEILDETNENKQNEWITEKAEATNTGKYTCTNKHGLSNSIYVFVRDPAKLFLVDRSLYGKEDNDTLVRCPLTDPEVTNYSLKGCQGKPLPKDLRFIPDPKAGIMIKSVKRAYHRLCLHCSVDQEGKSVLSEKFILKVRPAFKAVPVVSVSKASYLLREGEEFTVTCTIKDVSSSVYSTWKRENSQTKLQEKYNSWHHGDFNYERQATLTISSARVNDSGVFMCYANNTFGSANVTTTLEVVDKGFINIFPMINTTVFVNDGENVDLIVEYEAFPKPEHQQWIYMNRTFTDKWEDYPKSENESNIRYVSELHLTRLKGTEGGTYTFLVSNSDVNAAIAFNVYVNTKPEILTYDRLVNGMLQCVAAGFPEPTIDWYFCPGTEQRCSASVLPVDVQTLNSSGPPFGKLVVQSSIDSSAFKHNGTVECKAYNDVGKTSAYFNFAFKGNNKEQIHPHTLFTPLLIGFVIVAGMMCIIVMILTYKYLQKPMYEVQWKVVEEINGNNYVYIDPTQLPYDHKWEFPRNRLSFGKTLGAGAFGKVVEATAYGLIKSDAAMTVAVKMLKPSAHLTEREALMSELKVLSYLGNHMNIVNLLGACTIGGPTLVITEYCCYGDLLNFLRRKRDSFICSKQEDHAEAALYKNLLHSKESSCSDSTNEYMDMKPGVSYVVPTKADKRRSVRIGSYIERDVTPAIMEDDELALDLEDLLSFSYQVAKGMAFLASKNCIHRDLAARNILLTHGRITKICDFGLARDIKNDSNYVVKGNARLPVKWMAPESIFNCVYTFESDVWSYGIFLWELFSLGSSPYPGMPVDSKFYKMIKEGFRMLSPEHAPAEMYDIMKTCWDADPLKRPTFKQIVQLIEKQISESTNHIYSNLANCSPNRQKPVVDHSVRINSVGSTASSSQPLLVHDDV
Sequence of Aurora kinase B (Homo sapiens) (Q96GD4 whole entry, the tested form may be a part): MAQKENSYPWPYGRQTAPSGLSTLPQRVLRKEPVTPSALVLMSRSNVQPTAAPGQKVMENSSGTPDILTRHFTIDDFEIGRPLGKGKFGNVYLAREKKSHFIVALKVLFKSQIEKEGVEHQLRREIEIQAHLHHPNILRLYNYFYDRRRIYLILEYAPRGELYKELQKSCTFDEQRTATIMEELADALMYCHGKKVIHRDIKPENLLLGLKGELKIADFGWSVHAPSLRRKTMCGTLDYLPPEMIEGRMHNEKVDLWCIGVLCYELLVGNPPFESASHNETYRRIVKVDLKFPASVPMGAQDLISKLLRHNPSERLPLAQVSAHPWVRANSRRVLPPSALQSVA

Turning to `Cc1cc(NC(=O)[C@H](O)c2cc(F)cc(F)c2)ccc1-c1cnc(N)c(C(=O)NC(C)C)c1`, the half-life was 9.3 min in data set [1]; 4.08 h in data set [5]; 1.15 h in data set [6]; 3.12 h in data set [11]; 1.2 h in data set [16]. The compound further came in with a bioavailability in [2] of 49%. Besides, the fraction unbound in data set [3] was 0.007; in [4], 0.024; in data set [9], 0.017; in data set [14], 0.014. Besides, the efflux ratio in [7] worked out at 2. Also, the Cmax in [8] stood at 1600 ng/mL. For the same compound, the Papp A→B in data set [10] is 15 ×10⁻⁶ cm/s. Also, the pIC50 in data set [12] was 8.40. For the same compound, the solubility in data set [13] worked out at 31 µM (≈ 14.1 µg/mL). The AUC(0-t) in [15] is 2000 ng·h/mL.
`Cc1cccc(CC(=O)N2CCc3c2ccc(-c2cn(C)c4ncnc(N)c24)c3F)n1`: the Activity in data set [17] was found to be 6.5%; in data set [18], 5.3%; in [19], 0%; in data set [20], 1.8%; in [21] it was 7%; in data set [22], 5.3%. Besides, the Activity worked out at 8.2% in data set [23]; 0.2% in [24]; 3.7% in [25]; 0.1% in data set [26]; 1.3% in data set [27]; 0% in [28].
